Test results published in US20180071317A1, “USE OF AGENTS THAT ALTER THE PERITUMORAL ENVIRONMENT FOR THE TREATMENT OF CANCER” (SERVICIO ANDALUZ DE SALUD, priority 2011, published 2018).

Assays:
[1] = tested on: fibroblasts of tumors produced by lung carcinoma non small cell human (HCC-44) cells; experiment: Marker expression (IHC) in fibroblasts of tumor or peritumoral area, mouse model, HCC-44; format: in vivo; settings: HCC-44 tumors in mice, 30 mg/kg/day oral, 7 days
Method: The expression on fibroblast cells obtained in the animal model was analyzed by immunohistochemistry, of the above markers: TGF-α, TGF-β1, TGF-β2, TGF-β3, MMP-7, MMP-1 1, MMP-14MP-14. […] This process was realized in mice treated with non-peptide antagonists of NK1 receptor and in untreated animals (control).

[2] = tested on: fibroblasts (PHF) co-cultured with tumor cells of human pancreatic adenocarcinoma (CAPAN-1); experiment: Marker expression (IHC) in PHF co-cultured with CAPAN-1 tumor cells; format: cell-based; settings: co-culture with CAPAN-1; SP 1 μM + antagonist 1 μM; 48 h;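 note: cultures grown in fresh plasma from a healthy human donor, run in six replicates, value is percent of fibroblasts positive for each marker, compared with fibroblasts cultured alone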
Method: All cultures were maintained 48 hours, following which the same cells were included in paraffin blocks for subsequent analysis of the expression of different markers by immunohistochemistry (see Example 1). The primary antibodies used to perform immunohistochemical assays and their concentration are detailed in Example 2. All experiments were carried out sixfold. Analyzed markers in fibroblast cells (stromal cells) were: TGF-α, TGF-β1, TGF-β2, TGF-β3, SPARC, MMP-3, MMP-7, MMP-9, MMP-11, MMP-13 and MMP-14.

[3] = tested on: fibroblasts of tumors produced by tumor cell line of human melanoma (MEL HO); experiment: Marker expression (IHC) in fibroblasts of tumor or peritumoral area, mouse model, MEL HO; format: in vivo; settings: MEL HO tumors in mice, 30 mg/kg/day oral, 7 days
Method: (§1) In vitro tests conducted in Example 5 are now carried out in an experimental model in mice in vivo. […] Subsequently, the expression in fibroblasts tumoral and peritumoral area of molecular markers associated with progression and maintenance of tumors: TGF-α, TGF-β1, TGF-β2, TGF-β3, MMP-7, MMP-11, MMP-14 were analyzed by immunohistochemistry.
(§2) Were injected with 2×10^7 cells tumors (corresponding, in each case to each of the tumor types as specified in Table 9) in 200 of PBS subcutaneously μl. […] Mice were randomized into two groups when the tumors reached a volume of 75 mm^3 One group was treated with non-peptide receptor antagonists NK1 and the other with placebo 200μ1. […] Tumors and samples of non-neoplastic stromal areas remote from the tumor were halved, formalin fixed (4%) and then were included in paraffin blocks for analysis by immunohistochemistry.
(§3) The expression on fibroblast cells obtained in the animal model was analyzed by immunohistochemistry, of the above markers: TGF-α, TGF-β1, TGF-β2, TGF-β3, MMP-7, MMP-1 1, MMP-14MP-14. Tables 32 to 35 depict the type of label used and the average percentage of fibroblasts present in non-tumor areas, tumor and peritumoral (±SD) which were expressing the marker shown in each of the tumor types developed from of the different cell lines used. This process was realized in mice treated with non-peptide antagonists of NK1 receptor and in untreated animals (control).

[4] = tested on: fibroblasts (PHF) cells co-cultured with human T lymphoma tumor (DERL-7); experiment: Marker expression (IHC) in PHF co-cultured with DERL-7 tumor cells; format: cell-based; settings: PHF co-cultured with DERL-7 + SP + NK1 antagonist
[5] = tested on: fibroblast cells in co-culture with cells isolated from primary human tumors; experiment: Marker expression (IHC) in fibroblasts co-cultured with primary human tumor cells (colon, pancreatic, lung carcinoma, glioma, multiple myeloma); format: cell-based
[6] = tested on: fibroblasts of tumors produced by human glioma tumor line (GAMG); experiment: Marker expression (IHC) in fibroblasts of tumor or peritumoral area, mouse model, GAMG; format: in vivo; settings: GAMG tumors in mice, 30 mg/kg/day oral, 7 days
Method: as §1, §2, §3

[7] = Primary tumor cells (colon carcinoma) co-cultured + fibroblast + SP (1 μM) + NK1 antagonist 1 μM
[8] = co-culture with cells isolated from glioma, SP 1 μM + antagonist 1 μM
[9] = co-culture with cells isolated from lung cancer, SP 1 μM + antagonist 1 μM
[10] = co-culture with cells isolated from multiple myeloma, SP 1 μM + antagonist 1 μM
[11] = co-culture with cells isolated from pancreatic carcinoma, SP 1 μM + antagonist 1 μM

CC(=O)N1CCN([C@H]2CCN(C(=O)N(C)[C@H](C)c3cc(C(F)(F)F)cc(C(F)(F)F)c3)[C@@H](c3ccc(F)cc3C)C2)CC1 [Casopitant]
0%: fibroblasts expressing MMP-7 [1] | fibroblasts expressing MMP-11 [1] | fibroblasts expressing MMP-14 [1] | fibroblasts expressing TGF-α [1] | fibroblasts expressing TGF-β 1 [1] | fibroblasts expressing TGF-β 2 [1] | fibroblasts expressing TGF-β 3 [1] | PHF cells expressing MMP-3 [2] | PHF cells expressing MMP-7 [2] | PHF cells expressing MMP-9 [2] | PHF cells expressing MMP-11 [2] | PHF cells expressing MMP-13 [2] | PHF cells expressing MMP-14 [2] | PHF cells expressing SPARC [2] | PHF cells expressing TGF-α [2] | PHF cells expressing TGF-β1 [2] | PHF cells expressing TGF-β2 [2] | PHF cells expressing TGF-β3 [2] | fibroblasts expressing MMP-7 [3] | fibroblasts expressing MMP-11 [3] | fibroblasts expressing MMP-14 [3] | fibroblasts expressing TGF-α [3] | fibroblasts expressing TGF-β 1 [3] | fibroblasts expressing TGF-β 2 [3] | fibroblasts expressing TGF-β 3 [3] | cells expressing MMP-3 [4] | cells expressing MMP-7 [4] | cells expressing MMP-9 [4] | cells expressing MMP-11 [4] | cells expressing MMP-13 [4] | cells expressing MMP-14 [4] | cells expressing SPARC [4] | cells expressing TGF-α [4] | cells expressing TGF-β1 [4] | cells expressing TGF-β2 [4] | cells expressing TGF-β3 [4] | Percentage of fibroblast cells which expressed MMP-3 [5, 7] | Percentage of fibroblast cells which expressed MMP-7 [5, 7] | Percentage of fibroblast cells which expressed MMP-9 [5, 7] | Percentage of fibroblast cells which expressed MMP-11 [5, 7] | Percentage of fibroblast cells which expressed MMP-13 [5, 7] | Percentage of fibroblast cells which expressed MMP-14 [5, 7] | Percentage of fibroblast cells which expressed SPARC [5, 7] | Percentage of fibroblast cells which expressed TGFα [5, 7] | Percentage of fibroblast cells which expressed TGFβ1 [5, 7] | Percentage of fibroblast cells which expressed TGFβ2 [5, 7] | Percentage of fibroblast cells which expressed TGFβ3 [5, 7] | Percentage of fibroblast cells which expressed MMP-3 [5, 8] | Percentage of fibroblast cells which expressed MMP-7 [5, 8] | Percentage of fibroblast cells which expressed MMP-9 [5, 8] | Percentage of fibroblast cells which expressed MMP-11 [5, 8] | Percentage of fibroblast cells which expressed MMP-13 [5, 8] | Percentage of fibroblast cells which expressed MMP-14 [5, 8] | Percentage of fibroblast cells which expressed SPARC [5, 8] | Percentage of fibroblast cells which expressed TGFα [5, 8] | Percentage of fibroblast cells which expressed TGFβ1 [5, 8] | Percentage of fibroblast cells which expressed TGFβ2 [5, 8] | Percentage of fibroblast cells which expressed TGFβ3 [5, 8] | Percentage of fibroblast cells which expressed MMP-3 [5, 9] | Percentage of fibroblast cells which expressed MMP-7 [5, 9] | Percentage of fibroblast cells which expressed MMP-9 [5, 9] | Percentage of fibroblast cells which expressed MMP-11 [5, 9] | Percentage of fibroblast cells which expressed MMP-13 [5, 9] | Percentage of fibroblast cells which expressed MMP-14 [5, 9] | Percentage of fibroblast cells which expressed SPARC [5, 9] | Percentage of fibroblast cells which expressed TGFα [5, 9] | Percentage of fibroblast cells which expressed TGFβ1 [5, 9] | Percentage of fibroblast cells which expressed TGFβ2 [5, 9] | Percentage of fibroblast cells which expressed TGFβ3 [5, 9] | Percentage of fibroblast cells which expressed MMP-3 [5, 10] | Percentage of fibroblast cells which expressed MMP-7 [5, 10] | Percentage of fibroblast cells which expressed MMP-9 [5, 10] | Percentage of fibroblast cells which expressed MMP-11 [5, 10] | Percentage of fibroblast cells which expressed MMP-13 [5, 10] | Percentage of fibroblast cells which expressed MMP-14 [5, 10] | Percentage of fibroblast cells which expressed SPARC [5, 10] | Percentage of fibroblast cells which expressed TGFα [5, 10] | Percentage of fibroblast cells which expressed TGFβ1 [5, 10] | Percentage of fibroblast cells which expressed TGFβ2 [5, 10] | Percentage of fibroblast cells which expressed TGFβ3 [5, 10] | Percentage of fibroblast cells which expressed MMP-3 [5, 11] | Percentage of fibroblast cells which expressed MMP-7 [5, 11] | Percentage of fibroblast cells which expressed MMP-9 [5, 11] | Percentage of fibroblast cells which expressed MMP-11 [5, 11] | Percentage of fibroblast cells which expressed MMP-13 [5, 11] | Percentage of fibroblast cells which expressed MMP-14 [5, 11] | Percentage of fibroblast cells which expressed SPARC [5, 11] | Percentage of fibroblast cells which expressed TGFα [5, 11] | Percentage of fibroblast cells which expressed TGFβ1 [5, 11] | Percentage of fibroblast cells which expressed TGFβ2 [5, 11] | Percentage of fibroblast cells which expressed TGFβ3 [5, 11] | fibroblasts expressing MMP-7 [6] | fibroblasts expressing MMP-11 [6] | fibroblasts expressing MMP-14 [6] | fibroblasts expressing TGF-α [6] | fibroblasts expressing TGF-β 1 [6] | fibroblasts expressing TGF-β 2 [6] | fibroblasts expressing TGF-β 3 [6]
